US8541573B2, “Substituted sulfonamide compounds” (Gruenenthal GmbH, priority 2008, dated 2013)

Tests used:
[1] = molecular target: T1, B1R of rats (Rattus norvegicus, UniProt P97583); assay: Functional investigation on the bradykinin 1 receptor (B1R), cell-based fluorescent calcium-mobilization assay (FLIPR/Novostar), rat; conditions: 10 μM test substance; CHO K1 cells stably transfected with rat B1R gene; agonist Des-Arg9-bradykinin at EC80; % inhibition compared with maximum achievable inhibition; read-out: B1R antagonism, rat [10 μM] % inhibition
T1 construct: expressed in transfected cells; host or cells: CHO K1 cells
T1 sequence (P97583 1-337): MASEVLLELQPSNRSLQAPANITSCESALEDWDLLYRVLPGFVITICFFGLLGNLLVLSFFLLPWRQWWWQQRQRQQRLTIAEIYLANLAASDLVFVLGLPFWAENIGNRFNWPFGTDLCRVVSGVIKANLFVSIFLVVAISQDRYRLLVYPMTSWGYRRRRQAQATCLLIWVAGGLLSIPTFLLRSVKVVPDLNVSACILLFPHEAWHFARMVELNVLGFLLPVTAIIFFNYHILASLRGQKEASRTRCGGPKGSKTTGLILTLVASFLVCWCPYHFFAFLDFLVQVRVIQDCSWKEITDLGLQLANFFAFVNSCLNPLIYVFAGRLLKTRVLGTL
Method: (§1) The agonistic or antagonistic action of substances can be quantified on the bradykinin 1 receptor (B1R) of the human and rat species with ectopically expressing cell lines (CHO K1 cells) and with the aid of a Ca^2+-sensitive dyestuff (Fluo-4) in a fluorescent imaging plate reader (FLIPR). The figure in % activation is based on the Ca^2+ signal after addition of Lys-Des-Arg^9-bradykinin (0.5 nM) or Des-Arg^9-bradykinin (100 nM). Antagonists lead to a suppression of the Ca^2+ inflow after addition of the agonist. % inhibition compared with the maximum achievable inhibition is stated.
(§2) The agonistic or antagonistic action of substances can be determined on the bradykinin 1 receptor (B1R) of humans and rats by means of a cell-based flourescent calcium-mobilization assay. According to this assay agonist-induced increase of intracellular free Ca^2+ is quantified by means of a Ca^2+-sensitive dye (Fluo-4 type, Molecular Probes Europe BV, Leiden, Netherlands), in a Fluorescent Imaging Plate Reader (FLIPR, Molecular Devices, Sunnyvale, USA) and/or the Novostar (BMG Labtech GmbH, Offenburg, Germany).
(§3) Chinese hamster ovary cells (CHO K1 cells), which are stably transfected with the human B1R gene (hB1R cells) or with the B1R gene of rats (rB1R cells), are used. For functional investigations these cells are seeded into black 96-well plates with a clear bottom (BD Biosciences, Heidelberg, Germany or Greiner, Frickenhausen, Germany) in a density of 20,000-35,000 cells/well. The cells are incubated overnight in a humidified atmosphere at 37° C. and 5% CO2 in culture medium (hB1R cells: Nutrient Mixture Ham's F12, Gibco Invitrogen GmbH, Karlsruhe, Germany or DMEM, Sigma-Aldrich, Taufkirchen, Germany; rB1R cells: D-MEM/F12, Gibco Invitrogen GmbH, Karlsruhe, Germany) with 10 vol. % FBS (foetal bovine serum, Gibco Invitrogen GmbH, Karlsruhe, Germany).
(§4) On the following day the cells are loaded with the Ca^2+-sensitive dye Fluo-4-AM (Molecular Probes Europe BV, Leiden, Netherlands):
(§5) Method A: The medium of the cells is removed and cell plates are incubated with loading solution, which contains 2.13 μM Fluo-4-AM, 2.5 mM probenecid (Sigma-Aldrich, Taufkirchen, Germany), and 10 mM HEPES (Sigma-Aldrich, Taufkirchen, Germany) in HBSS buffer (Hank's buffered saline solution, Gibco Invitrogen GmbH, Karlsruhe, Germany) for 60 minutes at 37° C. After the plates are washed twice with HBSS buffer, HBSS buffer supplemented 0.1% BSA (bovine serum albumin; Sigma-Aldrich, Taufkirchen, Germany), 5.6 mM glucose and 0.05% gelatine (Merck KGaA, Darmstadt, Germany) is added. Cell plates are incubated for at least 20 minutes in the dark at room temperature before they are used for the Ca^2+ measurement in the FLIPR or Novostar.
(§6) Method B: The plates are washed with buffer A (15 mM HEPES, 80 mM NaCl, 5 mM KCl, 1.2 mM CaCl2, 0.7 mM MgSO4, 2 mg/ml glucose, 2.5 mM probenecid) and subsequently loaded with buffer A containing 2.4 μM Fluo-4-AM and 0.025% pluronic F127 (Sigma-Aldrich, Taufkirchen, Germany) for 60 minutes at 37° C. Cell plates are washed twice with buffer A. Then, buffer A supplemented with 0.05% BSA and 0.05% gelatine is added and cell plates are incubated in the dark at room temperature for at least 20 minutes before measurement in the FLIPR or Novostar is started.
(§7) The Ca^2+-dependent fluorescence is measured both before and after the addition of substances (λex=488 nm, λem=540 nm). For quantification of the effect the highest fluorescence intensity (FC, fluorescence counts) over time is given. The FLIPR protocol consists of two substance additions, done within the instrument while continuously monitoring the Ca^2+-dependent fluorescence at 540 nm. When the Novostar was used, one addition had to be done outside the instrument. Test substances (10 μM) are initially pipetted onto the cells and the intracellular Ca^2+ rise is compared with the control (hB1R: Lys-Des-Arg9-bradykinin>=50 nM; rB1R: Des-Arg9-bradykinin>=1 μM). […]

[2] = molecular target: T2, human B1R (Homo sapiens, UniProt P46663); assay: Functional investigation on the bradykinin 1 receptor (B1R), cell-based fluorescent calcium-mobilization assay (FLIPR/Novostar), human; conditions: 10 μM test substance; CHO K1 cells stably transfected with human B1R gene; agonist Lys-Des-Arg9-bradykinin at EC80; % inhibition compared with maximum achievable inhibition; read-out: B1R antagonism, human [10 μM] % inhibition
T2 construct: expressed in transfected cells; host or cells: CHO K1 cells
T2 sequence (P46663 1-353): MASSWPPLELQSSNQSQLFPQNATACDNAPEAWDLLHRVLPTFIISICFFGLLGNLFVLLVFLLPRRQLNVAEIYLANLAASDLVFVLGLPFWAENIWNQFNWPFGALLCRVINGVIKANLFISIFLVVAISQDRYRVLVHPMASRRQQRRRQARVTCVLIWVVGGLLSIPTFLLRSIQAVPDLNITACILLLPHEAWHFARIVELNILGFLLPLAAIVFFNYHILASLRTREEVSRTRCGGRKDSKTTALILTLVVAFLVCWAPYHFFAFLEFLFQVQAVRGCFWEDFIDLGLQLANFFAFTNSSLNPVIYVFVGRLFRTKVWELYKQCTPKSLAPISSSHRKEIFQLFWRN
Method: as §1, §2, §3, §4, §5, §6, §7

| SMILES | inhibition at 10 µM [1] | inhibition at 10 µM [2] |
| --- | --- | --- |
| COc1cc(C)c(S(=O)(=O)N(C)CCOCC(=O)N2CCC(CNC(C)=O)(N3CCN(c4ccncc4)CC3)CC2)c(C)c1 [Example 41, N-((1-(2-(2-(4-methoxy-N,2,6-trimethylphenylsulfonamido)ethoxy)acetyl)-4-(4-(pyridin-4-yl)piperazin-1-yl)piperidin-4-yl)methyl)acetamide] | 102% | 100% |
| CC(=O)NCC1(N2CCN(C)CC2)CCN(C(=O)CCC2CCCCN2S(=O)(=O)c2cc(C)c(Cl)cc2C)CC1 (stereo not shown) [Example 2, N-((1-(3-(1-(4-chloro-2,5-dimethylphenylsulfonyl)piperidin-2-yl)propanoyl)-4-(4-methylpiperazin-1-yl)piperidin-4-yl)methyl)acetamide] | 74% | 81% |
| CC(=O)NCC1(N2CCN(c3ccncc3)CC2)CCN(C(=O)CC2CCCCN2S(=O)(=O)c2cccc(C(F)(F)F)c2)CC1 (stereo not shown) [Example 36, N-((4-(4-(pyridin-4-yl)piperazin-1-yl)-1-(2-(1-(3-(trifluoromethyl)phenyl-sulfonyl)piperidin-2-yl)acetyl)piperidin-4-yl)methyl)acetamide] | 101% | 99% |
| COc1cc(C)c(S(=O)(=O)N(C)CCOCC(=O)N2CCC(CNC(C)=O)(N3CCN(C)CC3)CC2)c(C)c1 [Example 31, N-((1-(2-(2-(4-methoxy-N,2,6-trimethylphenylsulfonamido)ethoxy)acetyl)-4-(4-methylpiperazin-1-yl)piperidin-4-yl)methyl)acetamide] | 101% | 103% |
| COc1cc(C)c(S(=O)(=O)N2CCCCC2COCC(=O)N2CCC(CNC(=O)c3cccnc3)(N3CCN(C)CC3)CC2)c(C)c1 (stereo not shown) [Example 34, N-((1-(2-((1-(4-methoxy-2,6-dimethylphenylsulfonyl)piperidin-2-yl)methoxy)acetyl)-4-(4-methylpiperazin-1-yl)piperidin-4-yl)methyl)nicotinamide] | 102% | 104% |
| COc1cc(C)c(S(=O)(=O)N2CCCCC2COCC(=O)N2CCC(CNC(=O)c3ccccn3)(N3CCN(C)CC3)CC2)c(C)c1 (stereo not shown) [Example 21, N-((1-(2-((1-(4-methoxy-2,6-dimethylphenylsulfonyl)piperidin-2-yl)methoxy)acetyl)-4-(4-methylpiperazin-1-yl)piperidin-4-yl)methyl)picolinamide] | 101% | 103% |
| COc1cc(C)c(S(=O)(=O)N2CCCCC2COCCC(=O)N2CCC(CNC(=O)c3ccncc3)(N3CCN(C)CC3)CC2)c(C)c1 (stereo not shown) [Example 52, N-((1-(3-((1-(4-Methoxy-2,6-dimethylphenylsulfonyl)piperidin-2-yl)methoxy)propanoyl)-4-(4-methylpiperazin-1-yl)piperidin-4-yl)methyl)isonicotinamide] | 102% | 100% |
| COc1cc(C)c(S(=O)(=O)N(CCOCC(=O)N2CCC(CNC(=O)c3ccncc3)(N3CCN(C4CC4)CC3)CC2)C2CC2)c(C)c1 [Example 44, N-((1-(2-(2-(N-Cyclopropyl-4-methoxy-2,6-dimethylphenylsulfonamido)ethoxy)acetyl)-4-(4-cyclopropylpiperazin-1-yl)piperidin-4-yl)methyl)isonicotinamide] | 102% | 100% |

Next, values leading:

| inhibition at 10 µM [1] | inhibition at 10 µM [2] | SMILES |
| --- | --- | --- |
| 101% | 107% | COc1cc(C)c(S(=O)(=O)N(C)CCOCC(=O)N2CCC(CNC(=O)c3ccncc3)(N3CCN(C)CC3)CC2)c(C)c1 [Example 1, N-((1-(2-(2-(4-methoxy-N,2,6-trimethylphenylsulfonamido)ethoxy)acetyl)-4-(4-methylpiperazin-1-yl)piperidin-4-yl)methyl)isonicotinamide] |
| 59% | 67% | CN1CCN(C2(CNC(=O)Cc3ccccc3)CCN(C(=O)CC3CCCCN3S(=O)(=O)c3cccc(C(F)(F)F)c3)CC2)CC1 (stereo not shown) [Example 4, N-((4-(4-methylpiperazin-1-yl)-1-(2-(1-(3-(trifluoromethyl)phenylsulfonyl)piperidin-2-yl)acetyl)piperidin-4-yl)methyl)-2-phenylacetamide] |
| 104% | 102% | COc1cc(C)c(S(=O)(=O)N2CCCCC2COCC(=O)N2CCC(CNC(=O)c3ccccc3)(N3CCN(C)CC3)CC2)c(C)c1 (stereo not shown) [Example 5, N-((1-(2-((1-(4-methoxy-2,6-dimethylphenylsulfonyl)piperidin-2-yl)methoxy)acetyl)-4-(4-methylpiperazin-1-yl)piperidin-4-yl)methyl)benzamide] |
| 66% | – | CN1CCN(C2(CNC(=O)c3ccncc3)CCN(C(=O)CCCN(C)S(=O)(=O)c3cccc(C(F)(F)F)c3)CC2)CC1 [Example 54, N-((1-(4-(N-Methyl-3-(trifluoromethyl)phenylsulfonamido)butanoyl)-4-(4-methylpiperazin-1-yl)piperidin-4-yl)methyl)isonicotinamide] |
| 101% | 103% | COc1cc(C)c(S(=O)(=O)N(C)CCOCC(=O)N2CCC(CNC(=O)Cc3ccccc3)(N3CCN(C)CC3)CC2)c(C)c1 [Example 15, N-((1-(2-(2-(4-methoxy-N,2,6-trimethylphenylsulfonamido)ethoxy)acetyl)-4-(4-methylpiperazin-1-yl)piperidin-4-yl)methyl)-2-phenylacetamide] |
| 31% | 94% | CN1CCN(C2(CNC(=O)c3ccccc3)CCN(C(=O)CC(NS(=O)(=O)c3ccc4ccccc4c3)c3ccccc3)CC2)CC1 (stereo not shown) [Example 16, N-((4-(4-methylpiperazin-1-yl)-1-(3-(naphthalene-2-sulfonamido)-3-phenylpropanoyl)piperidin-4-yl)methyl)benzamide] |
| 102% | – | COc1cc(C)c(S(=O)(=O)N2CCCCC2CCOCC(=O)N2CCC(CNC(=O)c3ccncc3)(N3CCN(C)CC3)CC2)c(C)c1 (stereo not shown) [Example 53, N-((1-(2-(2-(1-(4-Methoxy-2,6-dimethylphenylsulfonyl)piperidin-2-yl)ethoxy)acetyl)-4-(4-methylpiperazin-1-yl)piperidin-4-yl)methyl)isonicotinamide] |
